Like-named read-outs stand apart in the source and are kept apart here.
Tests used:
[1] = Acute randomized placebo-controlled crossover trial of 200 mg TeaCrine: anchored VAS questionnaires; type: in vivo, human
Experimental: In order to examine the beneficial experiential effects and psychometric properties of theacrine supplementation in healthy subjects, explore optimal dosing and potential cumulative effects in a healthy human cohort with a 7-day, sub-acute repetitive dosing protocol, and acquire preliminary data on various biomarkers of safety and tolerability, an experiment was performed. […] A subset of 6 subjects underwent a separate 7-day, open-label, repeated dose study comparing 100 mg, 200 mg and 400 mg of TC. The experiment was a randomized, placebo-controlled, double-blind, within-subject crossover clinical trial (for N=15 study). A further subset study was open-label, sub-acute (7-day), repetitive dosing trial (for N=6 subset). Six (6) subjects provided written and dated informed consent to participate in the 7-day repetitive dosing study between Dec. 15, 2012 and Feb. 21, 2013. A separate cohort of fifteen (15) subjects provided written and dated informed consent for the acute dose, placebo-controlled, crossover clinical trial. All subjects were in good health as determined by physical examination and medical history, between the ages of 18 and 45 (inclusive). […] Subjects were willing and able to comply with the experimental and supplement protocol. […] Physical activity levels and health history were determined using standardized questionnaires. Heart rate and blood pressure were measured using an Omron HEM-780. Standing height was determined using a wall-mounted stadiometer. […] Medical Scale. A 100 mm anchored VAS questionnaire for energy, fatigue, and concentration was distributed at each acute lab session; additional VAS questionnaires were distributed for the daily assessment over a 6-hour period during the 7-day subset study. Quest Diagnostics (Pittsburgh, Pa.) was utilized to transport and analyze all blood samples. […] Statistical Analyses for Example 1. Descriptive statistics (mean, median, SD, 95% CIs) were used to quantify subjects physical characteristics. RM ANOVA, as well analyses of co-variance (ANCOVA), using baseline scores as the co-variate (respectively), were used to analyze between trial differences. Alpha was set to 0.05 (P≤0.05) for statistical significance, and <0.10 for trends. Effect sizes were also calculated. Upon arrival for the first testing session, subjects were randomly assigned to receive their respective supplement/placebo. Each subject ingested the sponsor recommended dosage of their respective supplement (1 capsule prior to schedule of assessments). Supplements were prepared in capsule form and packaged in coded generic containers for double-blind administration.

[2] = Theacrine-caffeine interaction study: single oral dose plasma pharmacokinetics (LC-MS/MS, noncompartmental); type: in vivo, human; settings: for Vd/F: read-out: Vd/F; for MRT: read-out: MRT; for half-life: read-out: t1/2 (converted)
Excerpt: Theacrine pharmacokinetics in humans has not been systematically characterized. Therefore, one purpose of this study, among others, was to determine theacrine pharmacokinetics and dose-linearity following oral administration in humans.
Eight healthy nonsmokers, including 4 men and 4 women, were recruited for the experiment.
Study Design and Procedures. […] Theacrine, administered as iTeaCrine.®, was provided by Compound Solutions (Carlsbad, Calif). […] Treatment sequence was randomized using a 4×4 Latin square. There was an approximate 1-week washout period between treatments for all subjects.
Test Visit Procedures. […] A catheter was inserted into the forearm vein for blood sampling. Duplicate measurements of resting heart rate and blood pressure were taken pre-dose and prior to each timed blood sample. In addition, respiratory rate was counted in one minute and body temperature was measured using an ear scanning thermometer (dual readings taken at each time).
All subjects were instructed to consume their usual diet throughout the study period, with the exception of the actual days of testing. During the two days prior to each test day, subjects recorded all food and drink consumed and attempted to mimic this intake for the two-day period prior to subsequent visits. Diet records were analyzed using nutrient analysis software (Food Processor SQL, version 9.9; ESHA Research, Salem, Oreg.). For the actual test days, standardized meals (meal replacement food bars [Clif “Builder's 20 g Protein Bar”] and ready-to-drink shakes [Orgain Organic Nutrition™]) were provided to the subjects after sample collection at hour 2 and hour 6 (one shake and one-half bar at each time). Subjects were also provided with adequate meal replacement bars and shakes to consume following the 8 hour sample collection. (during their time outside the lab). Each bar contained 280 calories, 10 grams of fat, 29 grams of carbohydrate, and 20 grams of protein. Each shake contained 250 calories, 7 grams of fat, 32 grams of carbohydrate, and 16 grams of protein. No food other than what was provided to the subjects was allowed during each study day, including both time spent in the lab and outside the lab. […] The subjects returned the following morning for the 24 hour blood collection, again in a 10 hour fasted state. The same volume of meal replacement bars or shakes was consumed by each subject during each visit (both in lab and outside lab).
Pharmacokinetic Study. Plasma concentration-time data were evaluated using noncompartmental methods in Phoenix WinNonlin (version 7.0; Pharsight Corporation, Mountain View, Calif) with adjustment for lag time after oral administration. The maximum concentration (Cmax), lag time (talag), and time of maximum concentration (tmax) were determined from the plasma concentration versus time data. The area under the plasma concentration-time curve from time 0 to infinity (was calculated using the trapezoidal rule extrapolated to time infinity). […] The oral clearance (CL/F) was calculated by dividing the oral dose by AUC0-∞. The apparent volume of distribution during the terminal elimination phase (Vz/F) was calculated by dividing CL/F by k. […]

[3] = both sexes, human, plasma, po, 125 mg
[4] = theacrine 125 mg + caffeine 150 mg versus theacrine 125 mg
[5] = theacrine with caffeine co-administration versus theacrine alone

Cn1c(=O)c2c(n(C)c1=O)n(C)c(=O)n2C [Theacrine, 1,3,7,9-tetramethylpurine-2,6,8-trione]
concentration (VAS) ([1]; 200 mg dose of TC, single dose, trend, vs. PLA −[…], P=0.07): +2.4%
fatigue (VAS) ([1]; 200 mg dose of TC, single dose, vs. PLA +5.8%, P=0.04): −6.7%
energy (VAS) ([1]; 200 mg dose of TC, single dose, vs. PLA −5.7%, P=0.049): +8.6%
perceived energy on VAS (FIG. 2) ([1]; 1, 2 and 3 hours after administration, vs placebo): higher levels of energy
perceived fatigue on VAS (FIG. 3) ([1]; 60 minutes after administration, vs placebo): lower levels of fatigue
Vd/F ([2]; both sexes, human, plasma, oral, theacrine, Condition 4: Theacrine 125 mg + Caffeine 150 mg, mean ± SD): 35.4 L
dose-adjusted Cmax ([2]; both sexes, human, plasma, po, 25 mg, Cmax, theacrine in plasma, Condition 1: Theacrine 25 mg single oral dose, dose-adjusted, mean ± SD): 34.1 ± 38.9 ng/mL/mg
Vd/F ([2]; both sexes, human, plasma, po, 25 mg, theacrine, Condition 1: Theacrine 25 mg single oral dose, mean ± SD): 48.1 ± 23.4 L
Tmax [2, 3]: 1.8 h
dose-adjusted Cmax ([2]; both sexes, human, plasma, po, 125 mg, Cmax, theacrine in plasma, Condition 2: Theacrine 125 mg single oral dose, dose-adjusted, mean ± SD): 25.6 ± 5.5 ng/mL/mg
Vd/F ([2]; both sexes, human, plasma, po, 125 mg, theacrine, Condition 2: Theacrine 125 mg single oral dose, mean ± SD): 50.5 ± 0.49 L
MRT [2, 3]: 36.8 ± 18.9 h
half-life [2, 3]: 1570 ± 822 min
dose-adjusted Cmax ([2]; both sexes, human, plasma, po, Cmax, theacrine in plasma, Condition 4: Theacrine 125 mg + Caffeine 150 mg single oral dose, dose-adjusted, mean ± SD): 38.6 ± 16.6 ng/mL/mg
MRT ([2]; both sexes, human, plasma, theacrine, Condition 1: Theacrine 25 mg single oral dose, mean ± SD): 24.9 ± 3.5 h
half-life ([2]; both sexes, human, theacrine in plasma, Condition 1: Theacrine 25 mg single oral dose, mean ± SD): 990 ± 144 min
Tmax ([2]; both sexes, human, theacrine in plasma, Condition 1: Theacrine 25 mg single oral dose, median (range)): 1.8 h
time to reach maximal concentration ([2]; oral administration of theacrine alone): ≤ 2 h
decrease of theacrine oral clearance (CL/F) by caffeine [2, 4]: approximately 30%
decrease of theacrine oral volume of distribution (Vd/F) by caffeine [2, 4]: approximately 30%
theacrine absorption rate (Tmax) and half-life (t1/2) under caffeine co-administration ([2]; theacrine 125 mg + caffeine 150 mg versus theacrine alone): unaffected
absorption following oral administration ([2]; theacrine alone): well absorbed
dose-adjusted theacrine pharmacokinetic parameters, 25 mg versus 125 mg ([2]; theacrine alone): not significantly different
AUC ([2]; theacrine in plasma, Condition 1: Theacrine 25 mg single oral dose, dose-adjusted, mean ± SD): 809 ± 923 ng·h/mL/mg
AUC ([2]; theacrine in plasma, Condition 2: Theacrine 125 mg single oral dose, dose-adjusted, mean ± SD): 736 ± 312 ng·h/mL/mg
dose-adjusted Cmax ([2]; theacrine in plasma, Condition 4: Theacrine 125 mg + Caffeine 150 mg single oral dose, dose-adjusted, mean ± SD): 37.7 ± 16.5 ng/mL/mg
AUC ([2]; theacrine in plasma, Condition 4: Theacrine 125 mg + Caffeine 150 mg, dose-adjusted, mean ± SD): 1,242 ± 1,129 hr * ng/mL/mg
geometric mean ratio of AUC [2, 5]: 1.1 ±0.03
geometric mean ratio of Cmax [2, 5]: 1.1 ±0.06
CL/F ([2]; theacrine, Condition 1: Theacrine 25 mg single oral dose, mean ± SD): 2.0 ± 0.9 L/h
CL/F ([2]; theacrine, Condition 2: Theacrine 125 mg single oral dose, mean ± SD): 1.6 ± 0.5 L/h
CL/F ([2]; theacrine, Condition 2: Theacrine 125 mg single oral dose, mean ± SD, listed as theacrine): 1.6 ± 0.49 L/h
CL/F ([2]; theacrine, Condition 4: Theacrine 125 mg + Caffeine 150 mg, mean ± SD): 1.2 ± 0.6 L/h
CL/F ([2]; theacrine, Condition 4: Theacrine 125 mg + Caffeine 150 mg, mean ± SD, listed as theacrine): 1.2 L/h
AUC ([2]; theacrine, theacrine 125 mg alone): 740 ± 310 ng·h/mL/mg
AUC ([2]; theacrine, with caffeine co-administration (theacrine 125 mg + caffeine 150 mg)): 1200 ± 1100 ng·h/mL/mg
